Laboratory results as given in patent US5338548A, “Method for increasing the storage stability of physostigmine” (priority 1993, dated 1994).
Values joined by “and” are separate entries in the source; they are usually repeats but may differ in a detail not shown here. Equal entries are not always repeated. “Also recorded” adds a separate entry of the source.

Key:
[1] = Stability of Physostigmine Free Base in Aqueous Solution (and in ethanol, isopropyl myristate), HPLC; type: physicochemical
Method: Relative stability of physostigmine free base in neutral or alkaline solution was determined as follows. Methanolic solution of physostigmine free base was acidified with a few drops of hydrochloric acid to lower the pH to about 3-6. […] Analysis was performed using HPLC Nova Pak 4-C18 column and a mobile phase consisting of:
0.63 g 85% Phosphorous Acid
0.96 g Sodium pentasulphonate
In the same manner, stability of physostigmine free base in neutral or slightly acidified water was determined and is shown in FIG. 2. […] In ethanol solution, 5% of the physostigmine free base was lost after 7 days and 10% after 27 days. At this rate of degradation, a patch would have lost 72% of its active ingredient in one year and 92% in two years.

[2] = Stability of Physostigmine Free Base in Polymer Matrix (patch storage, HPLC recovery); type: physicochemical; settings: for Weight of Physostigmine free base Recovered: polyurethane patch, n = 3
Method: Increased stability of physostigmine free base in polymer matrices over solutions is shown in the following experiments. Patches containing physostigmine free base in a polymer matrix were prepared by dissolving 18 g of a polyether based polyurethane produced by Dow under the name Pellethane™ grade 2363-80AE, 2.0 g physostigmine free base and 2.0 g isopropyl myristate in 80 g THF. The solution was allowed to stand until clear. A second identical lot of polymer/drug solution was prepared containing 0.02 g of acetyl cystine. Clear solutions were cast onto the reverse side of a polyester-based release liner available from 3M Company of Minneapolis under the trade name Scotch™ 1002. After evaporation of the THF solvent, the liquid cast film of 2000 μm produced a dry matrix film 200-230 μm thick. Patches with an area of 7.9 cm^2 were cut from these laminated structures, packaged in polyethylene foil pouches and stored at room temperature and at 45° C.
Three patches from each lot were tested for physostigmine free base content immediately after manufacture and after 7 and 25 days of storage at room temperature and at 45° C. Once the backing was removed from the patch, the drug-containing film was weighed and then dissolved in 25 g of THF, followed by dilution with 25 g on methanol. Precipitated Pellethane™ was filtered from the solution before injection into the HPLC. Average amounts of physostigmine free base recovered from the patches, with and without acetyl cysteine, are given in Table I. Theoretical drug loadings were 17.2 and 16.2 mg for the stabilized and unstabilized patches, respectively. Scatter in the weight data can be attributed to variation in film weights and analytical errors amounting to as much as ±10%.

skin of rabbits = experiment: In Vivo Test of Physostigmine Free Base Patches (rabbit skin flux, 23 hours)
Method: Pellethane™ 2363-80AE (24.4 g) was added to a solution of 101.3 g of THF containing 2.903 g of physostigmine free base and 2.951 g of isopropyl myristate and stirred until a clear solution was formed. After evaporation of the THF solvent, the liquid cast film of 2000 μm produced a dry matrix film 180-230 μm thick. A solution of Avery adhesive 460, containing 10 wt % isopropyl myristate was cast on the drug/polymer matrix film to produce an adhesive layer approximately 801 μm thick. The film was finally overlaid with a release liner film 1022 available from 3M Company and patches with an area of 7.92 cm^2 were cut from the laminated structure. These patches were weighed, heat sealed into polyethylene-foil pouches and stored until use.
The patches were then placed on the skin of rabbits from which the hair had been carefully clipped, after 23 hours, the patches were removed and the in vivo skin fluxes determined and summarized in Table II.

[3] = tablets, oral dosage; cited from earlier work
tardive dyskinesia = settings: American Journal of Psychiatry, 134(7), 769-774; cited from earlier work
long-term memory = settings: Davis et al., Science 201, 272 (1978); cited from earlier work
[4] = test system: skeletal muscle contraction; settings: background, myasthenia gravis; cited from earlier work
[5] = systemic use; cited from earlier work
[6] = individual patch (patch 1-12), 23 hours on rabbit skin

SMILES: CNC(=O)Oc1ccc2c(c1)[C@]1(C)CCN(C)[C@@H]1N2C [Physostigmine free base]
- degraded at 168 h ([1]; ethanol solution, after 7 days, read-out: physostigmine free base lost in ethanol solution): 5%
- degraded at 648 h ([1]; ethanol solution, after 27 days, read-out: physostigmine free base lost in ethanol solution): 10%
- appearance of degradation (pink solution, rubreserine) ([1]; methanolic solution acidified with HCl to pH about 3-6, after one or two hours): became pink due to accumulation of the degradation product rubreserine; also recorded: appearance of degradation products of the pink solution
- loss of initial drug in neutral solution ([1]; neutral water, within 30 days, same storage conditions, FIG. 2): degrades rapidly with more than half of the initial drug gone
- stability in slightly acidified water ([1]; room temperature, pH 3, FIG. 2): more stable, and slightly pink
- rate of degradation in ethanol and isopropyl myristate ([1]; solvents ethanol and isopropyl myristate, compared with unbuffered and acidified water): slower than with unbuffered water but faster than with acidified water
- discoloration of patches ([2]; 25 days at 45° C.): slightly discolored
- Weight of Physostigmine free base Recovered ([2]; No Preservative, 45° C., 0 days): 15.0 mg
- Weight of Physostigmine free base Recovered ([2]; No Preservative, 45° C., 7 days): 16.8 mg
- Weight of Physostigmine free base Recovered ([2]; No Preservative, 45° C., 25 days): 18.5 mg
- Weight of Physostigmine free base Recovered ([2]; No Preservative, Room Temperature, 0 days): 15.0 mg
- Weight of Physostigmine free base Recovered ([2]; No Preservative, Room Temperature, 7 days): 16.5 mg
- Weight of Physostigmine free base Recovered ([2]; No Preservative, Room Temperature, 25 days): 16.8 mg
- Weight of Physostigmine free base Recovered ([2]; With Preservative, 45° C., 0 days): 15.1 mg
- Weight of Physostigmine free base Recovered ([2]; With Preservative, 45° C., 7 days): 16.8 mg
- Weight of Physostigmine free base Recovered ([2]; With Preservative, 45° C., 25 days): 16.8 mg
- Weight of Physostigmine free base Recovered ([2]; With Preservative, Room Temperature, 0 days): 15.1 mg
- Weight of Physostigmine free base Recovered ([2]; With Preservative, Room Temperature, 7 days): 17.3 mg
- Weight of Physostigmine free base Recovered ([2]; With Preservative, Room Temperature, 25 days): 16.8 mg
- additional peaks in HPLC analysis ([2]; patches stored 25 days at 45° C.): no additional peaks were observed
- physostigmine free base loss during storage ([2]; polyurethane patches, room temperature or 45° C., up to 25 days): no measurable physostigmine free base loss
- Drug Delivered ΔMass (skin of rabbits; Average of patches 1-12): 14.0 mg
- Drug Delivered ΔMass (%) (skin of rabbits; Average of patches 1-12): 69%
- Drug Remaining in Patch (skin of rabbits; Average of patches 1-12): 6.3 mg
- ΔMass/time (skin of rabbits; Average of patches 1-12): 0.61 mg/h
- Average Total Flux (skin of rabbits; Average of patches 1-12, patch area 7.9 cm^2): 77 μg/cm^2 · hr
- Drug Delivered ΔMass (skin of rabbits; [6]): 15.0 mg and 14.0 mg and 15.7 mg and 12.0 mg and 16.0 mg and 12.8 mg and 14.3 mg and 13.7 mg and 15.2 mg and 12.7 mg and 11.8 mg
- Drug Delivered ΔMass (%) (skin of rabbits; [6]): 67% and 69% and 70% and 71% and 68%
- ΔMass/time (skin of rabbits; [6]): 0.65 mg/h and 0.61 mg/h and 0.68 mg/h and 0.52 mg/h and 0.70 mg/h and 0.56 mg/h and 0.62 mg/h and 0.60 mg/h and 0.66 mg/h and 0.55 mg/h and 0.51 mg/h
- Drug Remaining in Patch (skin of rabbits; individual patch (patch 1-12), 23 hours on rabbit skin, measured by HPLC): 7.4 mg and 6.8 mg and 7.1 mg and 5.2 mg and 6.7 mg and 6.2 mg and 6.5 mg and 5.7 mg and 4.9 mg
- Average Total Flux (skin of rabbits; individual patch (patch 1-12), patch area 7.9 cm^2, 23 hours on rabbit skin): 82 μg/cm^2 · hr and 77 μg/cm^2 · hr and 86 μg/cm^2 · hr and 66 μg/cm^2 · hr and 88 μg/cm^2 · hr and 71 μg/cm^2 · hr and 78 μg/cm^2 · hr and 75 μg/cm^2 · hr and 83 μg/cm^2 · hr and 70 μg/cm^2 · hr and 64 μg/cm^2 · hr
- drug delivered (skin of rabbits; over the 23 hour period): approximately 70%
- Average Physostigmine free base flux (skin of rabbits; text after Table II): 160 μg/cm^2 ·h

SMILES: CNC(=O)Oc1ccc2c(c1)[C@]1(C)CCN(C)[C@@H]1N2C [Physostigmine]
- drug blood levels for multiple oral doses [3]: typical variations in blood concentration ranging from a maxima above the required level (and possibly in the toxic range) to a minima which may be below the effective dose
- therapeutic effects on tardive dyskinesia (tardive dyskinesia): positive therapeutic effects on tardive dyskinesia
- retrieval of information from long-term memory (long-term memory): improved
- storage of information into long-term memory (long-term memory): significantly enhanced storage of information into long-term memory
- strength of muscular contraction [4]: increased strength of muscular contraction
- therapeutic window [5]: narrow therapeutic window
